Measurements reported in the supplement of paper PMC10307832.

What was measured:
Test in all cases: relative viability (nuclei count vs DMSO), 5 days (fraction); higher = more cells survive
[1] = system: ABC-1
Method in brief: (§1)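 Lung cancer cell lines in 1536-well plates were dosed by pin tool the day after seeding, either with one drug alone or with a fixed anchor-drug dose plus five library-drug doses (not always all listed) in √10 steps. After 5 days, cells were fixed and their nuclei stained in one step (final 0.05% Triton X-100, 1% formaldehyde, 1 ug/ml Hoechst), then counted on 4× images. Relative viability is the nuclei count in treated wells divided by that in vehicle wells. Values are medians of duplicate plates.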

[2] = system: COR-L23
Method in brief: as §1

[3] = system: EPLC-272H
Method in brief: as §1

[4] = system: HARA
Method in brief: as §1

[5] = system: HCC-15
Method in brief: as §1

[6] = system: HCC-78
Method in brief: as §1

[7] = system: LC-2-ad
Method in brief: as §1

[8] = system: LU99A
Method in brief: as §1

[9] = system: NCI-H1651
Method in brief: as §1

[10] = system: NCI-H1915
Method in brief: as §1

[11] = system: NCI-H1993
Method in brief: as §1

[12] = system: NCI-H2009
Method in brief: as §1

Compound: C[C@@H]1CN(CC(=O)Nc2ccc3c(c2)Cc2cccc(-c4cc(=O)cc(N5CCOCC5)o4)c2S3)C[C@H](C)O1 + CC(=O)c1c(C)c2cnc(Nc3ccc(N4CCNCC4)cn3)nc2n(C2CCCC2)c1=O [Palbociclib] (partner 0.5 µM)
- relative viability ([1]; first compound 0.04 µM): 0.376
- relative viability ([1]; first compound 0.1265 µM): 0.673
- relative viability ([1]; first compound 0.4 µM): 0.634
- relative viability ([1]; first compound 4 µM): 0.811
- relative viability ([2]; first compound 0.04 µM): 0.294
- relative viability ([2]; first compound 0.1265 µM): 0.281
- relative viability ([2]; first compound 0.4 µM): 0.379
- relative viability ([2]; first compound 4 µM): 0.24
- relative viability ([3]; first compound 0.04 µM): 0.38
- relative viability ([3]; first compound 0.1265 µM): 0.388
- relative viability ([3]; first compound 0.4 µM): 0.331
- relative viability ([3]; first compound 4 µM): 0.321
- relative viability ([4]; first compound 0.04 µM): 0.234
- relative viability ([4]; first compound 0.1265 µM): 0.186
- relative viability ([4]; first compound 0.4 µM): 0.272
- relative viability ([4]; first compound 4 µM): 0.226
- relative viability ([5]; first compound 0.04 µM): 0.706
- relative viability ([5]; first compound 0.1265 µM): 0.708
- relative viability ([5]; first compound 0.4 µM): 0.751
- relative viability ([5]; first compound 4 µM): 0.678
- relative viability ([6]; first compound 0.04 µM): 0.456
- relative viability ([6]; first compound 0.1265 µM): 0.458
- relative viability ([6]; first compound 0.4 µM): 0.48
- relative viability ([6]; first compound 4 µM): 0.487
- relative viability ([7]; first compound 0.04 µM): 0.493
- relative viability ([7]; first compound 0.1265 µM): 0.465
- relative viability ([7]; first compound 0.4 µM): 0.466
- relative viability ([7]; first compound 4 µM): 0.419
- relative viability ([8]; first compound 0.04 µM): 0.387
- relative viability ([8]; first compound 0.1265 µM): 0.404
- relative viability ([8]; first compound 0.4 µM): 0.449
- relative viability ([8]; first compound 4 µM): 0.445
- relative viability ([9]; first compound 0.04 µM): 0.543
- relative viability ([9]; first compound 0.1265 µM): 0.502
- relative viability ([9]; first compound 0.4 µM): 0.51
- relative viability ([9]; first compound 4 µM): 0.527
- relative viability ([10]; first compound 0.04 µM): 0.517
- relative viability ([10]; first compound 0.1265 µM): 0.526
- relative viability ([10]; first compound 0.4 µM): 0.507
- relative viability ([10]; first compound 4 µM): 0.311
- relative viability ([11]; first compound 0.04 µM): 0.645
- relative viability ([11]; first compound 0.1265 µM): 0.729
- relative viability ([11]; first compound 0.4 µM): 0.438
- relative viability ([11]; first compound 4 µM): 0.662
- relative viability ([12]; first compound 0.04 µM): 0.216
- relative viability ([12]; first compound 0.1265 µM): 0.214
- relative viability ([12]; first compound 0.4 µM): 0.206
- relative viability ([12]; first compound 4 µM): 0.206
